Like-named read-outs stand apart in the source and are kept apart here.
Experiments:
HCV genotype 1b replicon = experiment: Inhibitor combination study (combination index, CalcuSyn); details: at the concentrations used in the combination experiments
[1] = tested on: Infectious HCV, Genotype 2a, JFH1; experiment: Small molecule inhibition of HCV infectivity (luciferase); assay type: cell-based, Hepatitis C virus
Description: (5) Small molecule inhibition of HCV infectivity. To quantify the inhibitory effect of DBPR110 on HCV particle formation, HCV replication in DBPR110-treated and untreated cells was quantified using a luciferase activity assay, as described previously. See, e.g., Wakita et al., Nat Med 11:791-6 (2005); and Zhang et al., Antimicrob Agents Chemother 52:666-74 (2008). In vitro-transcribed RNA derived from full-length HCV2a JFH1 infectious cDNA clone with the luciferase reporter gene was delivered to Huh-7.5 cells by electroporation. The cells were seeded at 1×10^5 cells per well in 12-well plates and incubated for 4 h. The medium was then aspirated and replaced with 1 mL of complete medium containing DBPR110 in serial concentration. The plates with compounds were incubated for 72 h and the medium were then used to infect Huh-7.5 cells. Huh-7.5 cells were seeded in 12-well plates (1×10^5 cells/well) in DMEM with 10% FBS for 24 h before infection. The HCV cell culture (HCVcc)-containing supernatant per well was added to the Huh-7.5 cells. After 72 h of incubation at 37° C., the total cell lysate was assayed for luciferase expression (Promega).

[2] = tested on: HCV genotype 1b Con1 replicon cells; experiment: Isolation of resistant replicons, genotype 1b; assay type: cell-based, Hepatitis C virus
Procedure: Selection of resistant replicon cells was performed by growing HCV genotype 1b Con1 and 2a JFH1 replicon cells in medium containing 0.2 or 200 nM and 60 nM or 1 μM of DBPR110, respectively. Medium containing the compound was added to monolayers of HCV1b-neo replicon cells at ˜25% confluence in the presence of 0.2 to 0.4 mg/mL of G418. Replicon cells maintained in the presence of dimethyl sulfoxide (DMSO) were used as a control. After 40 days, total RNA was isolated from both the control replicon cells and homogeneous cell lines containing compound using the TRIzol reagent (Invitrogen, Carlsbad, Calif.) according to the manufacturer's protocol. The RNA was amplified by reverse transcription-PCR (RT-PCR).
To characterize the resistance profile of DBPR110, cell clones resistant to DBPR110 were obtained by culturing HCV genotype 1b replicon cells in the presence of G418 and increasing concentrations of DBPR110 ranging from 50- to 50,000-fold the EC50 value.

[3] = tested on: HCV genotype 1b replicon (Con1); experiment: Inhibitory assay for HCV replicons (luciferase), genotype 1b Con1; assay type: cell-based, Hepatitis C virus
Procedure: (2) Cell culture and HCV inhibitors. Huh-7.5 cells and their derivative HCV replicon cell lines were maintained in Dulbecco's modified Eagle's medium (DMEM, Gibco/BRL) that was supplemented with 100 U/mL penicillin-streptomycin (Gibco/BRL), 0.1 mM nonessential amino acid (NEAA, Gibco/BRL) and 10% fetal bovine serum (FBS) heat inactivated at 37° C. in 5% CO2. The HCV replicon cell lines were isolated from colonies as described in Lohman et al., Science 285:110-3 (1999). The culture medium for the replicon cells was additionally supplemented with 0.25 to 0.5 mg/mL of G418, unless specified otherwise. Compound DBPR110 and sofosbuvir were synthesized at the Institute of Biotechnology and Pharmaceutical Research at the National Health Research Institutes in Taiwan. Telaprevir (Lin et al., Antimicrob Agents Chemother, 50:1813-22 (2006)) was purchased from Acme Biosciences (Belmont, Calif.). The compounds were stored at −20° C. as 10 to 500 mM dimethyl sulfoxide (DMSO) stock solutions until the assay. IFN-α was purchased from Calbiochem (La Jolla, Calif.) and stored at −80° C.
(3) Inhibitory assay for HCV replicons. Cells were seeded at 1×10^4 (high-throughput screening assay) or 1×10^5 (regular assay) cells/well in 96- or 12-well plate, respectively, and incubated for 4 h. The medium was then aspirated and replaced with 0.1 (96-well plate) or 1 (12-well plate) mL of complete medium containing a single compound or combinations of compounds in serial concentration(s). The plates with compounds were incubated for 72 h and then assayed for luciferase expression (Promega). The EC50 of each compound was determined independently and used to determine the range of concentrations used for the combination experiments. All data are presented as the means±standard deviations (SD) from three independent experiments. The selectivity index (SI) was calculated as the ratio of the CC50 to the EC50.

HCV1b replicon = experiment: Serum shift assay; assay type: cell-based, Hepatitis C virus; details: for EC90 / EC50: Hepatitis C virus; for EC50: read-out: E50
Procedure: (9) Serum shift assay. In the serum shift assay, the inhibitory activity of DBPR110 was determined using replicon 1b in the presence of 10, 20, 30, 40 or 50% fetal bovine serum, or 10 or 40% of extracellular normal human serum.

O=C(N[C@@H](C(=O)N1CCC[C@H]1c1ncc(-c2ccc(-c3ccc(-c4cnc([C@@H]5CCCN5C(=O)[C@H](NC(=O)C5CC5)c5ccccc5)s4)cc3)cc2)s1)c1ccccc1)C1CC1 [DBPR110]
cytotoxicity (HCV genotype 1b replicon): No cytotoxicity was observed
Selective index ([1]; CC50/EC50, Infectious HCV, Genotype 2a, JFH1): >720,461
EC50 ([1]; Hepatitis C virus, read-out: Luciferase activity assay EC50): 18.3 pM
EC90 ([1]; Hepatitis C virus, read-out: Luciferase activity assay EC90): 258 ± 50.2 pM
fold more resistant than parental cells ([2]; DBPR110-resistant cells (DBPR110R), genotype 1b): greater than 14,000 fold
EC50 ([2]; Hepatitis C virus): > 55000 pM
EC50 ([3]; Hepatitis C virus, HCV-1b replicon cell lines, single agent, combination study system, read-out: EC50): 3.3 ± 0.8 pM
EC50 ([3]; Hepatitis C virus, parental genotype 1b replicon cells, read-out: EC50): 3.9 pM
EC50 ([3]; Hepatitis C virus, Genotype 1b, Con1 replicon cell line, read-out: Luciferase activity assay EC50): 3.9 pM
EC90 ([3]; Hepatitis C virus, Genotype 1b, Con1 replicon cell line, read-out: Luciferase activity assay EC90): 8.2 ± 1.8 pM
susceptibility of genotype 1b greater than that of genotype 2a replicon cells ([3]; genotype 1b vs genotype 2a replicon cells): 74 fold
Shift fold (EC50) (HCV1b replicon; 10% FBS): 1.0 fold
Shift fold (EC90) (HCV1b replicon; 10% FBS): 1.0 fold
Shift fold (EC50) (HCV1b replicon; 10% NHS (normal human serum)): 1.0 fold
Shift fold (EC90) (HCV1b replicon; 10% NHS (normal human serum)): 1.0 fold
Shift fold (EC50) (HCV1b replicon; 20% FBS): 1.9 fold
Shift fold (EC90) (HCV1b replicon; 20% FBS): 2.6 fold
Shift fold (EC50) (HCV1b replicon; 30% FBS): 1.8 fold
Shift fold (EC90) (HCV1b replicon; 30% FBS): 2.3 fold
Shift fold (EC50) (HCV1b replicon; 40% FBS): 3.1 fold
Shift fold (EC90) (HCV1b replicon; 40% FBS): 3.8 fold
Shift fold (EC50) (HCV1b replicon; 40% NHS (normal human serum)): 6.3 fold
Shift fold (EC90) (HCV1b replicon; 40% NHS (normal human serum)): 14.1 fold
Shift fold (EC50) (HCV1b replicon; 50% FBS): 5.0 fold
Shift fold (EC90) (HCV1b replicon; 50% FBS): 4.5 fold
EC90 (HCV1b replicon; 10% FBS): 9.3 ± 3.4 pM
EC50 (HCV1b replicon; 10% FBS): 4.3 ± 0.8 pM
EC90 (HCV1b replicon; 10% NHS (normal human serum)): 41.6 ± 1.3 pM
EC50 (HCV1b replicon; 10% NHS (normal human serum)): 33.5 ± 0.4 pM
EC90 (HCV1b replicon; 20% FBS): 23.8 ± 11 pM
EC50 (HCV1b replicon; 20% FBS): 8.1 ± 1.6 pM
EC90 (HCV1b replicon; 30% FBS): 21.6 ± 17 pM
EC50 (HCV1b replicon; 30% FBS): 7.9 ± 0.9 pM
EC90 (HCV1b replicon; 40% FBS): 35.1 ± 7.4 pM
EC50 (HCV1b replicon; 40% FBS): 13.2 ± 1.7 pM
EC90 (HCV1b replicon; 40% NHS (normal human serum)): 588 ± 45.9 pM
EC50 (HCV1b replicon; 40% NHS (normal human serum)): 211 ± 6.3 pM
EC90 (HCV1b replicon; 50% FBS): 41.9 ± 7.2 pM
EC50 (HCV1b replicon; 50% FBS): 21.5 ± 10 pM

Source: patent US20140127158A1, “COMBINATION THERAPY FOR HEPATITIS C VIRUS INFECTION” (National Health Research Institute, priority 2012, published 2014)
